From ChEMBL document CHEMBL1146051, “Novel inhibitors of hepatitis C NS3-NS4A serine protease derived from 2-aza-bicyclo[2.2.1]heptane-3-carboxylic acid” (Bioorg Med Chem Lett, 2006)

Target: NS3 (Hepatitis C virus, UniProt A3EZJ3)
Test: Inhibitory activity against HCV NS3 protease
Design: species or system Hepacivirus hominis
Details: read-out: Ki

NS3, sequence (A3EZJ3 whole entry): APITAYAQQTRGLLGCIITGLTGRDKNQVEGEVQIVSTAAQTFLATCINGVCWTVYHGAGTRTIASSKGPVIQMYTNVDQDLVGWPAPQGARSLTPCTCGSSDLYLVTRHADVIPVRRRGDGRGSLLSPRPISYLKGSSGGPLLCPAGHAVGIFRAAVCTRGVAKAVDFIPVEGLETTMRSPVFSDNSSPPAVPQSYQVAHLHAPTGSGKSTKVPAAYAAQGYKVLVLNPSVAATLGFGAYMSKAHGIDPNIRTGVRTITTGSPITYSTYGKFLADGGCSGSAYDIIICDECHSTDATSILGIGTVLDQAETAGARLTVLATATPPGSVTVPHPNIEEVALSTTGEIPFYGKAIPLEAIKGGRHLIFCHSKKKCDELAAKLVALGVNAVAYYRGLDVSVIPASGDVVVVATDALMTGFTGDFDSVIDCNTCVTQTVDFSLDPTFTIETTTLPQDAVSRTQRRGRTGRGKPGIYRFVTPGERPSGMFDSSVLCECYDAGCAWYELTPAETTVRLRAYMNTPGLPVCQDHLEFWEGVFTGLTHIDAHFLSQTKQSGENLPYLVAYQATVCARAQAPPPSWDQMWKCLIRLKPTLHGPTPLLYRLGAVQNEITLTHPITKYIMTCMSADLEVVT

SMILES	Ki
CC(C)CC(NC(=O)[C@@H]1C2CCC(C2)N1C(=O)[C@@H](NC(=O)OC(C)(C)C)C1CCCCC1)C(=O)C(=O)NCC(=O)N[C@H](C(=O)N(C)C)c1ccccc1 (some centres undefined)	53 nM
CN(C)C(=O)[C@@H](NC(=O)CNC(=O)C(=O)C(CC1CC1)NC(=O)[C@@H]1C2CCC(C2)N1C(=O)[C@@H](NC(=O)NC(C)(C)C)C1CCCCC1)c1ccccc1 (some centres undefined)	19 nM

Same assay, conditions: read-out: Ki app

SMILES	Ki
CN(C)C(=O)[C@@H](NC(=O)CNC(=O)C(=O)C(CC1CCC1)NC(=O)[C@@H]1C2CCC(C2)N1C(=O)[C@@H](NC(=O)OC(C)(C)C)C1CCCCC1)c1ccccc1 (some centres undefined)	51 nM
CN(C)C(=O)[C@@H](NC(=O)CNC(=O)C(=O)C(CC1CCC1)NC(=O)[C@@H]1C2CCC(C2)N1C(=O)[C@@H](NC(=O)OC(C)(C)C)C(C)(C)C)c1ccccc1 (some centres undefined)	27 nM
CC(C)CC(NC(=O)[C@@H]1C2CCC(C2)N1C(=O)[C@@H](NC(=O)OC(C)(C)C)C(C)(C)C)C(=O)C(=O)NCC(=O)N[C@H](C(=O)N(C)C)c1ccccc1 (some centres undefined)	40 nM
CN(C)C(=O)[C@@H](NC(=O)CNC(=O)C(=O)C(CC1CCC1)NC(=O)[C@@H]1C2CCC(C2)N1C(=O)[C@@H](NC(=O)NC(C)(C)C)C1CCCCC1)c1ccccc1 (some centres undefined)	21 nM
CCCC(NC(=O)[C@@H]1C2CCC(C2)N1C(=O)[C@@H](NC(=O)OC(C)(C)C)C(C)(C)C)C(=O)C(N)=O (some centres undefined)	6900 nM
CCCCC(NC(=O)[C@@H]1C2CCC(C2)N1C(=O)[C@@H](NC(=O)OC(C)(C)C)C(C)(C)C)C(=O)C(=O)NCC(=O)N[C@H](C(=O)N(C)C)c1ccccc1 (some centres undefined)	81 nM
CN(C)C(=O)[C@@H](NC(=O)CNC(=O)C(=O)C(CC1CCC1)NC(=O)[C@@H]1C2CCC(C2)N1C(=O)[C@@H](NC(=O)NC(C)(C)C)C(C)(C)C)c1ccccc1 (some centres undefined)	13 nM
CN(C)C(=O)[C@@H](NC(=O)CNC(=O)C(=O)C(CC1CC1)NC(=O)[C@@H]1C2CCC(C2)N1C(=O)[C@@H](NC(=O)NC(C)(C)C)C(C)(C)C)c1ccccc1 (some centres undefined)	10 nM
CCCC(NC(=O)[C@@H]1C2CCC(C2)N1C(=O)[C@@H](NC(=O)OC(C)(C)C)C1CCCCC1)C(=O)C(=O)NCC(=O)N[C@H](C(=O)N(C)C)c1ccccc1 (some centres undefined)	90 nM
CN(C)C(=O)[C@@H](NC(=O)CNC(=O)C(=O)C(CC1CC1)NC(=O)[C@@H]1C2CCC(C2)N1C(=O)[C@@H](NC(=O)OC(C)(C)C)C(C)(C)C)c1ccccc1 (some centres undefined)	19 nM
CN(C)C(=O)[C@@H](NC(=O)CNC(=O)C(=O)C(CC1CC1)NC(=O)[C@@H]1C2CCC(C2)N1C(=O)[C@@H](NC(=O)OC(C)(C)C)C1CCCCC1)c1ccccc1 (some centres undefined)	20 nM
CCCC(NC(=O)[C@@H]1C2CC([C@H]3C[C@@H]23)N1C(=O)[C@@H](NC(=O)C(C)(C)C)C1CCCCC1)C(=O)C(=O)NCC(=O)N[C@H](C(=O)N(C)C)c1ccccc1 (some centres undefined)	90 nM
CCCC(NC(=O)[C@@H]1C2CCC(C2)N1C(=O)[C@@H](NC(=O)OC(C)(C)C)C(C)(C)C)C(=O)C(=O)NCC(=O)O (some centres undefined)	3800 nM
CCCC(NC(=O)[C@@H]1C2CCC(C2)N1C(=O)[C@@H](NC(=O)OC(C)(C)C)C(C)(C)C)C(=O)C(=O)NCC(=O)N[C@H](C(=O)N(C)C)c1ccccc1 (some centres undefined)	110 nM
CCCCC(NC(=O)[C@@H]1C2CC([C@H]3C[C@@H]23)N1C(=O)[C@@H](NC(=O)C(C)(C)C)C1CCCCC1)C(=O)C(=O)NCC(=O)N[C@H](C(=O)N(C)C)c1ccccc1 (some centres undefined)	27 nM
C=CCNC(=O)C(=O)C(CCC)NC(=O)[C@@H]1C2CCC(C2)N1C(=O)[C@@H](NC(=O)OC(C)(C)C)C(C)(C)C (some centres undefined)	5500 nM
CCCC(NC(=O)[C@@H]1C2CCC(C2)N1C(=O)[C@@H](NC(=O)OC(C)(C)C)C(C)(C)C)C(=O)C(=O)NCC(=O)OCc1ccccc1 (some centres undefined)	1500 nM

Target: T1, Neutrophil elastase (Homo sapiens, UniProt P08246)
T1 sequence (P08246 whole entry): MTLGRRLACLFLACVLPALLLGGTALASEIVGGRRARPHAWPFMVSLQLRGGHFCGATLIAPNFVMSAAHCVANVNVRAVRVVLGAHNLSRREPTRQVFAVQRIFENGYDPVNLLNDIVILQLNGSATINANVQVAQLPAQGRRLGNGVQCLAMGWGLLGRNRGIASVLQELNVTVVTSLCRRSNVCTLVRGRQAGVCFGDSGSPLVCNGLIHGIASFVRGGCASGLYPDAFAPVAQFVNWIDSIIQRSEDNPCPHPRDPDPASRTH
Test: Inhibitory activity against HNE
Details: read-out: Ki app

SMILES	Ki
CN(C)C(=O)[C@@H](NC(=O)CNC(=O)C(=O)C(CC1CCC1)NC(=O)[C@@H]1C2CCC(C2)N1C(=O)[C@@H](NC(=O)NC(C)(C)C)C(C)(C)C)c1ccccc1 (some centres undefined)	5300 nM
CN(C)C(=O)[C@@H](NC(=O)CNC(=O)C(=O)C(CC1CC1)NC(=O)[C@@H]1C2CCC(C2)N1C(=O)[C@@H](NC(=O)NC(C)(C)C)C(C)(C)C)c1ccccc1 (some centres undefined)	340 nM

System: not listed separately
Test: Selectivity for HNE over HCV NS3 protease
Details: not given

SMILES	Ratio Ki(app)
CN(C)C(=O)[C@@H](NC(=O)CNC(=O)C(=O)C(CC1CC1)NC(=O)[C@@H]1C2CCC(C2)N1C(=O)[C@@H](NC(=O)NC(C)(C)C)C(C)(C)C)c1ccccc1 (some centres undefined)	35

System: Hepatitis C virus
Test: Inhibition of HCV replication in a cellular replicon assay
Assay type: functional, organism-based, Hepacivirus hominis
Details: not given

SMILES	EC50
CN(C)C(=O)[C@@H](NC(=O)CNC(=O)C(=O)C(CC1CCC1)NC(=O)[C@@H]1C2CCC(C2)N1C(=O)[C@@H](NC(=O)NC(C)(C)C)C(C)(C)C)c1ccccc1 (some centres undefined)	2000 nM
CCCCC(NC(=O)[C@@H]1C2CCC(C2)N1C(=O)[C@@H](NC(=O)OC(C)(C)C)C1CCCCC1)C(=O)C(=O)NCC(=O)N[C@H](C(=O)N(C)C)c1ccccc1 (some centres undefined)	600 nM
